Source: the supplement of paper PMC11451515

Columns and labels:
Settings in all cases: 48 h
NOMO1 [1] = experiment: AUC of viability dose-response curve (% viability x log10 dose units); higher = less sensitive
Method in brief: (§1)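 Leukemia cells adapted to each medium (500 or 1000 cells/well, 1536-well plates) were exposed to library compounds in DMSO for 48 h at 37°C at 11 threefold doses, 47 μM to 0.79 nM. Luminescence by CellTiter-Glo One was normalised per plate to DMSO and cell-free wells, then fitted with a four-parameter log-logistic curve on log10 dose. Curves above full viability were scaled and quality-control failures removed before area under the curve was integrated by trapezoidal rule.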

P12-Ichikawa [2] = experiment: as above
Method in brief: as §1

SEM cells [3] = experiment: as above
Method in brief: as §1

SEM cells [4] = experiment: cell viability relative to DMSO control; higher = less cytotoxic
Method in brief: (§2)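 Leukemia cells (NOMO1 or SEM, 500 cells/well; P12-Ichikawa, 1000 cells/well) were seeded in 5 μl in 1536-well plates after at least four passages of adaptation to each medium. They received library compounds in DMSO by pin dosing, 11 threefold points from 47 μM to 0.79 nM. Luminescence with CellTiter-Glo One was read after 48 h at 37°C. Viability is stated per plate relative to DMSO wells, with cell-free wells as background.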

NOMO1 [5] = experiment: as above
Method in brief: as §2

P12-Ichikawa [6] = experiment: as above
Method in brief: as §2

C\C1=N\N=C(\C2=CC=C(N)C=C2)C3=CC4=C(OCO4)C=C3C1
AUC of viability dose-response curve
Settings	NOMO1 [1]	P12-Ichikawa [2]	SEM cells [3]
HPLM + 10% dialyzed FBS	471	469	467
RPMI 5 mM glucose + 10% FBS	471	465	470
RPMI 5 mM glucose + 10% dialyzed FBS	464	465	464

SEM cells [4], HPLM + 10% dialyzed FBS
Settings	cell viability [%]
0.000781 µM	129
0.00234 µM	115
0.00702 µM	122
0.0211 µM	136
0.0632 µM	126
0.19 µM	123
0.569 µM	131
1.71 µM	131
5.12 µM	150
15.4 µM	138
46.1 µM	107

C[C@@H](c1ncncc1F)[C@](O)(Cn1cncn1)c1ccc(F)cc1F
AUC of viability dose-response curve
Settings	HPLM + 10% dialyzed FBS	RPMI 5 mM glucose + 10% FBS	RPMI 5 mM glucose + 10% dialyzed FBS
NOMO1 [1]	462	448	446
P12-Ichikawa [2]	464	436	450

cell viability [%]
Settings	NOMO1 [5]	P12-Ichikawa [6]	SEM cells [4]
HPLM + 10% dialyzed FBS, 0.000781 µM	117	111	119
HPLM + 10% dialyzed FBS, 0.00234 µM	121	115	116
HPLM + 10% dialyzed FBS, 0.00702 µM	110	110	118
HPLM + 10% dialyzed FBS, 0.0211 µM	110	107	110
HPLM + 10% dialyzed FBS, 0.0632 µM	125	107	121
HPLM + 10% dialyzed FBS, 0.19 µM	114	107	25.3
HPLM + 10% dialyzed FBS, 0.569 µM	120	110	114
HPLM + 10% dialyzed FBS, 1.71 µM	107	108	118
HPLM + 10% dialyzed FBS, 5.12 µM	111	103	19
HPLM + 10% dialyzed FBS, 15.4 µM	108	102	120
HPLM + 10% dialyzed FBS, 46.1 µM	93.3	89.6	83.4
RPMI 5 mM glucose + 10% FBS, 0.000781 µM	111	123	–
RPMI 5 mM glucose + 10% FBS, 0.00234 µM	111	130	–
RPMI 5 mM glucose + 10% FBS, 0.00702 µM	114	119	–
RPMI 5 mM glucose + 10% FBS, 0.0211 µM	103	121	–
RPMI 5 mM glucose + 10% FBS, 0.0632 µM	108	111	–
RPMI 5 mM glucose + 10% FBS, 0.19 µM	107	119	–
RPMI 5 mM glucose + 10% FBS, 0.569 µM	126	116	–
RPMI 5 mM glucose + 10% FBS, 1.71 µM	108	114	–
RPMI 5 mM glucose + 10% FBS, 5.12 µM	107	98.9	–
RPMI 5 mM glucose + 10% FBS, 15.4 µM	91.1	105	–
RPMI 5 mM glucose + 10% FBS, 46.1 µM	93.8	92.6	–
RPMI 5 mM glucose + 10% dialyzed FBS, 0.000781 µM	111	109	123
RPMI 5 mM glucose + 10% dialyzed FBS, 0.00234 µM	114	118	125
RPMI 5 mM glucose + 10% dialyzed FBS, 0.00702 µM	128	116	126
RPMI 5 mM glucose + 10% dialyzed FBS, 0.0211 µM	115	105	126
RPMI 5 mM glucose + 10% dialyzed FBS, 0.0632 µM	111	111	141
RPMI 5 mM glucose + 10% dialyzed FBS, 0.19 µM	97.9	104	32.3
RPMI 5 mM glucose + 10% dialyzed FBS, 0.569 µM	108	108	140
RPMI 5 mM glucose + 10% dialyzed FBS, 1.71 µM	116	107	103
RPMI 5 mM glucose + 10% dialyzed FBS, 5.12 µM	99.8	102	15.2
RPMI 5 mM glucose + 10% dialyzed FBS, 15.4 µM	111	89.5	121
RPMI 5 mM glucose + 10% dialyzed FBS, 46.1 µM	97.4	91.4	73.9

O=C1CSC(=O)N1C(CCc1ccncc1)COc1ccc(-c2cccc([N+](=O)[O-])c2)cc1 (stereo not drawn)
AUC of viability dose-response curve
Settings	NOMO1 [1]	P12-Ichikawa [2]	SEM cells [3]
HPLM + 10% dialyzed FBS	444	447	427
RPMI 5 mM glucose + 10% FBS	446	394	433
RPMI 5 mM glucose + 10% dialyzed FBS	454	436	467

cell viability [%]
Settings	HPLM + 10% dialyzed FBS	RPMI 5 mM glucose + 10% FBS	RPMI 5 mM glucose + 10% dialyzed FBS
P12-Ichikawa [6], 0.000781 µM	115	122	–
P12-Ichikawa [6], 0.00234 µM	119	134	–
P12-Ichikawa [6], 0.00702 µM	122	116	–
P12-Ichikawa [6], 0.0211 µM	118	107	–
P12-Ichikawa [6], 0.0632 µM	118	114	–
P12-Ichikawa [6], 0.19 µM	115	91.3	–
P12-Ichikawa [6], 0.569 µM	111	99.1	–
P12-Ichikawa [6], 1.71 µM	111	110	–
P12-Ichikawa [6], 5.12 µM	95.7	87.4	–
P12-Ichikawa [6], 15.4 µM	108	93.7	–
P12-Ichikawa [6], 46.1 µM	90.1	82.3	–
SEM cells [4], 0.000781 µM	119	123	105
SEM cells [4], 0.00234 µM	123	118	131
SEM cells [4], 0.00702 µM	109	132	105
SEM cells [4], 0.0211 µM	115	118	123
SEM cells [4], 0.0632 µM	118	112	135
SEM cells [4], 0.19 µM	92.4	117	116
SEM cells [4], 0.569 µM	114	117	128
SEM cells [4], 1.71 µM	95.6	109	117
SEM cells [4], 5.12 µM	111	98.6	106
SEM cells [4], 15.4 µM	112	82.7	116
SEM cells [4], 46.1 µM	79.5	48.9	75.1

CN(N=O)C(=O)N[C@H]1C(O)OC(CO)[C@@H](O)[C@@H]1O (stereo partly drawn)
AUC of viability dose-response curve
Settings	HPLM + 10% dialyzed FBS	RPMI 5 mM glucose + 10% FBS	RPMI 5 mM glucose + 10% dialyzed FBS
NOMO1 [1]	428	391	375
P12-Ichikawa [2]	397	383	368

cell viability [%]
Settings	NOMO1 [5]	P12-Ichikawa [6]	SEM cells [4]
HPLM + 10% dialyzed FBS, 0.000781 µM	82.7	91.5	66.7
HPLM + 10% dialyzed FBS, 0.00234 µM	89.7	84.9	75.4
HPLM + 10% dialyzed FBS, 0.00702 µM	98.6	82.8	79.1
HPLM + 10% dialyzed FBS, 0.0211 µM	95.7	84.2	74.5
HPLM + 10% dialyzed FBS, 0.0632 µM	98.6	89.2	81.8
HPLM + 10% dialyzed FBS, 0.19 µM	82.6	81.9	74.6
HPLM + 10% dialyzed FBS, 0.569 µM	90.2	85.8	74
HPLM + 10% dialyzed FBS, 1.71 µM	85	82.8	77.2
HPLM + 10% dialyzed FBS, 5.12 µM	83.1	84.2	89.2
HPLM + 10% dialyzed FBS, 15.4 µM	93.1	60.5	40.3
HPLM + 10% dialyzed FBS, 46.1 µM	88.4	83	37.9
RPMI 5 mM glucose + 10% FBS, 0.000781 µM	77.7	83.3	101
RPMI 5 mM glucose + 10% FBS, 0.00234 µM	79.6	84.2	101
RPMI 5 mM glucose + 10% FBS, 0.00702 µM	82.4	76.3	106
RPMI 5 mM glucose + 10% FBS, 0.0211 µM	80.6	75.8	87.8
RPMI 5 mM glucose + 10% FBS, 0.0632 µM	81.3	81.3	106
RPMI 5 mM glucose + 10% FBS, 0.19 µM	90.3	85.2	76.3
RPMI 5 mM glucose + 10% FBS, 0.569 µM	85.7	74.2	86.5
RPMI 5 mM glucose + 10% FBS, 1.71 µM	73.7	87.6	108
RPMI 5 mM glucose + 10% FBS, 5.12 µM	81.5	72.8	119
RPMI 5 mM glucose + 10% FBS, 15.4 µM	88	78.5	48.3
RPMI 5 mM glucose + 10% FBS, 46.1 µM	79.5	83.7	51.6
RPMI 5 mM glucose + 10% dialyzed FBS, 0.000781 µM	69.3	70.2	63.9
RPMI 5 mM glucose + 10% dialyzed FBS, 0.00234 µM	78.8	81.9	74
RPMI 5 mM glucose + 10% dialyzed FBS, 0.00702 µM	74.3	83.9	73.7
RPMI 5 mM glucose + 10% dialyzed FBS, 0.0211 µM	75.5	74.1	63.8
RPMI 5 mM glucose + 10% dialyzed FBS, 0.0632 µM	84.3	79.6	70.4
RPMI 5 mM glucose + 10% dialyzed FBS, 0.19 µM	75.6	76.6	55.1
RPMI 5 mM glucose + 10% dialyzed FBS, 0.569 µM	81.2	80.2	80.9
RPMI 5 mM glucose + 10% dialyzed FBS, 1.71 µM	82.7	81.7	78.5
RPMI 5 mM glucose + 10% dialyzed FBS, 5.12 µM	81.4	71.3	80.8
RPMI 5 mM glucose + 10% dialyzed FBS, 15.4 µM	86	71	32.7
RPMI 5 mM glucose + 10% dialyzed FBS, 46.1 µM	72.4	77.5	43.3
